Like-named read-outs stand apart in the source and are kept apart here.
Columns and labels:
[1] = system: guinea pig myocytes; design: method as in Duff et al., 1995; conditions: ref Duff et al., 1995, cited from earlier work
[2] = system: M651T hERG1; design: method as in Perissinotti et al., 2019; conditions: ref Perissinotti et al., 2019; cited from earlier work
[3] = target: WT hERG1 (Homo sapiens, UniProt Q12809); assay: cell-based; conditions: HEK 293 cells
Source text: (§1) The site-directed mutagenesis methods utilized in this work have been previously reported ([Lees-Miller et al., 2015]; [Wang et al., 2016]). The hERG1 constructs were transfected into mammalian HEK cells. Conventional overlap PCR with primers were synthesized by Sigma Genosys (Oakville, Ontario, Canada) and sequenced by using Eurofins MWG Operon (Huntsville, AL) to create the single- and double-point mutant constructs of hERG1. Following this, XbaI restriction endonuclease was used to linearize and the cRNA was transcribed in vitro using the mMessage mMachine T7 Ultra cRNA transcription kit (Ambion, Austin, TX).
(§2) All experiments were performed under room temperature (295 K). The extracellular solution contained (mM) NaCl 140, KCl 5.4, CaCl2 1, MgCl2 1, HEPES 5, glucose 5.5; the pH of the solution was adjusted and kept at 7.4 with NaOH solution. Micropipettes were pulled from borosilicate glass capillary tubes using a programmable horizontal puller (Sutter Instruments, Novato, CA). […] Tail currents were recorded when the voltage was returned to −100 mV from +50 mV. […] The changes of hERG1 currents during the intracellular dialysis of the drug were monitored each minute right after forming the whole cell configuration. […]

[4] = target: F656C hERG1 (Homo sapiens, UniProt Q12809, F656C); assay: whole-cell patch-clamp of hERG1 tail currents, F656C mutant
Source text: as §1, §2

[5] = target: T1, F557L/F656C hERG1 (Homo sapiens, UniProt Q12809, F557L/F656C); assay: whole-cell patch-clamp of hERG1 tail currents, double mutation F557L/F656C; assay type: cell-based
T1 construct: expressed in transfected cells; host or cells: HEK 293
Source text: as §1, §2

[6] = target: T2, hERG1 (Homo sapiens, UniProt Q12809); assay: intracellular application of drug via the patch pipette, hERG1 current; assay type: cell-based; conditions: 100 µM (15-fold greater than extracellular IC50)
T2 construct: expressed in transfected cells; host or cells: HEK 293
Description: All experiments were performed under room temperature (295 K). The extracellular solution contained (mM) NaCl 140, KCl 5.4, CaCl2 1, MgCl2 1, HEPES 5, glucose 5.5; the pH of the solution was adjusted and kept at 7.4 with NaOH solution. Micropipettes were pulled from borosilicate glass capillary tubes using a programmable horizontal puller (Sutter Instruments, Novato, CA). The “intracellular” pipette solution contained the following: 10 mM KCl, 110 mM K-aspartate, 5 mM MgCl2, 5 mM Na2ATP, 10 mM EGTA [ethylene glycol-bis(-aminoethyl ether)-N,N,N,N tetraacetic acid], 5 mM HEPES, and 1mM CaCl2. The internal solution was then adjusted to pH 7.2 with KOH solution. Transfected HEK cells were patched to record the hERG1 currents. Standard patch-clamp methods were used to measure the whole cell currents of hERG1 mutants expressed in HEK 293 cells using the AXOPATCH 200B amplifier (Axon Instruments). Tail currents were recorded when the voltage was returned to −100 mV from +50 mV. Ivabradine was dissolved in Tyrode solution immediately before the experiments and the solutions were used for the next 2 h during the experiments. […] The changes of hERG1 currents during the intracellular dialysis of the drug were monitored each minute right after forming the whole cell configuration.

T1 sequence (Q12809 whole entry F557L/F656C): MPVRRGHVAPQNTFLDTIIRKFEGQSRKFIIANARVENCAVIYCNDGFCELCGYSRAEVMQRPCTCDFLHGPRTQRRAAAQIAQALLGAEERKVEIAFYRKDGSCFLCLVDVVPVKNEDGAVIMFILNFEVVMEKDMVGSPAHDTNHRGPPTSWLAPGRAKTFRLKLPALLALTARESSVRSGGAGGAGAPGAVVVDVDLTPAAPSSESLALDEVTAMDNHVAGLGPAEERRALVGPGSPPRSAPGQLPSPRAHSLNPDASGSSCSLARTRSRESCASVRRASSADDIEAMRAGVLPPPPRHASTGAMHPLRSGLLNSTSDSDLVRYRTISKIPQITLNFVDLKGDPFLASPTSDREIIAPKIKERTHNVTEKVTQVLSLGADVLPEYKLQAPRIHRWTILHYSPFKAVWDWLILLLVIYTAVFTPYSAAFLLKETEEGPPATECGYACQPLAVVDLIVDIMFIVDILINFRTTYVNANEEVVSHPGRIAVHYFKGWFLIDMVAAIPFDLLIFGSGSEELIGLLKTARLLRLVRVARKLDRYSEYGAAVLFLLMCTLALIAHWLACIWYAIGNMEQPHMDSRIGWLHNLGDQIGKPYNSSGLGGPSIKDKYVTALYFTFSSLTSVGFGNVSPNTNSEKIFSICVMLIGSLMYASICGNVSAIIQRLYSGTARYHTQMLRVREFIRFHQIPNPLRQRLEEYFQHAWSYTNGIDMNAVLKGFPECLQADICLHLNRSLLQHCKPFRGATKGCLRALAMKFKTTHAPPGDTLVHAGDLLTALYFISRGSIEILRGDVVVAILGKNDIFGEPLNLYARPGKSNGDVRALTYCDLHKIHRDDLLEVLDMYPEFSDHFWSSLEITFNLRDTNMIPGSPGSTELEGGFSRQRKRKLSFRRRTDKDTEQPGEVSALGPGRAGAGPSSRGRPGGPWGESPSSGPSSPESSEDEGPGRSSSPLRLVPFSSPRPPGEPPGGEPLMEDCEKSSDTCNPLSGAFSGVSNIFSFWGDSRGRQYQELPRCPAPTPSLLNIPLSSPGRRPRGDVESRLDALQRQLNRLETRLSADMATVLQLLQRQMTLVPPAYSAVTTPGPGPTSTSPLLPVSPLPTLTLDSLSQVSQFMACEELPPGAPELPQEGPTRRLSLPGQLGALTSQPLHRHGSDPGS
Chain of WT hERG1 (Q12809 whole entry): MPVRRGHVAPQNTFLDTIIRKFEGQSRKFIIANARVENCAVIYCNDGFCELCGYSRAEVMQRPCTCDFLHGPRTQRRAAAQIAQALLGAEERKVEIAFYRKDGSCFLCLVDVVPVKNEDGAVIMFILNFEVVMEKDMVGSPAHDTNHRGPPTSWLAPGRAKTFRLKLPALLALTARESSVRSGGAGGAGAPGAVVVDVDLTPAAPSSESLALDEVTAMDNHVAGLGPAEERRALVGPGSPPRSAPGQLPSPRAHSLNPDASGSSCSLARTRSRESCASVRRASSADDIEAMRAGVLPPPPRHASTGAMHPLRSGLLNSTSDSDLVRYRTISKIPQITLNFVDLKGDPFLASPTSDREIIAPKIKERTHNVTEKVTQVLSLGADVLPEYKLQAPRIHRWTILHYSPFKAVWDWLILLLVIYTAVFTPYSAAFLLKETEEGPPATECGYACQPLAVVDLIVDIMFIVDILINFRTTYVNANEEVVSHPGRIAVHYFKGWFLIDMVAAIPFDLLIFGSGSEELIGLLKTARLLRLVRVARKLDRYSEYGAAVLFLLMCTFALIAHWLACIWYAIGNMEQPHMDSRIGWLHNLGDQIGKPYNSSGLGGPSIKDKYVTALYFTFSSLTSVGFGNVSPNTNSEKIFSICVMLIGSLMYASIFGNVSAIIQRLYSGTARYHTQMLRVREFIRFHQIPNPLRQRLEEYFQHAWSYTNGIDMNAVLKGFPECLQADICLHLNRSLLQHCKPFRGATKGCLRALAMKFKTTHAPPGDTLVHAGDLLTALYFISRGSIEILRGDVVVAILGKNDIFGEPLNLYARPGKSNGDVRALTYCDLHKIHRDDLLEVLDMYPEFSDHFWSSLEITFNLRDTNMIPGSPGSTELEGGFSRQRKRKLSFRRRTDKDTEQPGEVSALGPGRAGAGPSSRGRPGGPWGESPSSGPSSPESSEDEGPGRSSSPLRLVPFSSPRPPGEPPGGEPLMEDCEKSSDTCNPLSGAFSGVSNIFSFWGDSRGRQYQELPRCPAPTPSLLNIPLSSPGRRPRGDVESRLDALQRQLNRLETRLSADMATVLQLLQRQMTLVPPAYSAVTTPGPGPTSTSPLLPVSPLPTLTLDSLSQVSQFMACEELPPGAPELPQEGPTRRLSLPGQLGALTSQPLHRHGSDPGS
T2 sequence (Q12809 whole entry): as above
Chain of F656C hERG1 (Q12809 whole entry F656C): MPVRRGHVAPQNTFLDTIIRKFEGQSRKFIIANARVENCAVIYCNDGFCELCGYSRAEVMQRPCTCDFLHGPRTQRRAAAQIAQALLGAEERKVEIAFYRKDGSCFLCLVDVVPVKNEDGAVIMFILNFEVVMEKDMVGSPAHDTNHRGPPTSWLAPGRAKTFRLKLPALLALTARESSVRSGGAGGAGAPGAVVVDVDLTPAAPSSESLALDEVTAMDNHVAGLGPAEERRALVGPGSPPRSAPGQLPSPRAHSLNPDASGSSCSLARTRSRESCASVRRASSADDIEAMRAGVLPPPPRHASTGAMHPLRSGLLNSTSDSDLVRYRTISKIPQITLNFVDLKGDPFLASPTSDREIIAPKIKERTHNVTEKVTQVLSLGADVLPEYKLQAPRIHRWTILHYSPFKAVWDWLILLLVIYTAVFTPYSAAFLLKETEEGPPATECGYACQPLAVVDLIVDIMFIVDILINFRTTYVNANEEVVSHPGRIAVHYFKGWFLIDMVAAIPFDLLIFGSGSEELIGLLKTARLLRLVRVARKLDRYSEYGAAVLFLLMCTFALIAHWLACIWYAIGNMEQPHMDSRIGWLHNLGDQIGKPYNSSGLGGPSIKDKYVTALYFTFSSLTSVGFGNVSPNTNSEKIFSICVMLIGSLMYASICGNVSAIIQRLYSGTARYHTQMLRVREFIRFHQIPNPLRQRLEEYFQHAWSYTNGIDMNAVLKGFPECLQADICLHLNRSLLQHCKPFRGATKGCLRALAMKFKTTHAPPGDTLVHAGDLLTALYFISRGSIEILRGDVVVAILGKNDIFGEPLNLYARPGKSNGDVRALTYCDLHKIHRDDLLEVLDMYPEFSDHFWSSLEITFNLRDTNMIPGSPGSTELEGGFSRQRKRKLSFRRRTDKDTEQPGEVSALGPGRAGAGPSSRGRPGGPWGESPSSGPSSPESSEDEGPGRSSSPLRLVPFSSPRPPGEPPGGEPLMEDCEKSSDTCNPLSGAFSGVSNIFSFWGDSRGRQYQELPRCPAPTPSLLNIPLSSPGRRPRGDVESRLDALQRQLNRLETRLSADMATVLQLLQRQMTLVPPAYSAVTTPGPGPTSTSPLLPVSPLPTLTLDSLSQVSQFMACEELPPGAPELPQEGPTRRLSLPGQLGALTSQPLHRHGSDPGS

Row | SMILES | IC50 ([1]; read-out: high affinity for binding of dofetilide, high-affinity site) [µM] | IC50 ([1]; read-out: low affinity for binding of dofetilide (low affinity IC50 value), low-affinity site) [µM] | sensitivity of block to the M651T mutation [2] | IC50 ([3]; IC50 for block (Hill fit), WT, Figure 7A) [µM] | IC50 ([3]; IC50 for block of hERG1, WT, applied extracellularly, tail currents, room temperature) [µM] | IC50 [4] [µM] | block in raw current traces ([5]; F557L/F656C, 100 µM Ivabradine vs control) | blocking ([5]; double mutant F557L/F656C, suprapharmacologic concentrations (dofetilide 20 µM, ivabradine 100 µM)) | block of hERG1 current when applied intracellularly [6]
1 | CN(CCOc1ccc(NS(C)(=O)=O)cc1)CCc1ccc(NS(C)(=O)=O)cc1 [dofetilide] | 0.1 | 1 | insensitive | – | – | – | – | – | –
2 | COc1cc2c(cc1OC)CC(=O)N(CCCN(C)C[C@H]1Cc3cc(OC)c(OC)cc31)CC2 [ivabradine] | – | – | – | 6.8 | 6.7 | 45 | no block | ~ 15% | little block

Source: paper PMC7338687, “Allosteric Coupling Between Drug Binding and the Aromatic Cassette in the Pore Domain of the hERG1 Channel: Implications for a State-Dependent Blockade” (Frontiers in Pharmacology, 2020)
